Drawing on PubChem BioAssay AID1963837 (Molecular Pharmacology Branch, DTP, NCI, 2024), this text covers viability, T/C for four molecules.

SMILES strings stand for the structures.
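Further: spheroids exposed to drugs for seven days before readout.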

The first experiment relates to 843126-344-R-J1-PDC complex spheroid viability. In words: Anticancer human tumor 843126-344-R-J1-PDC patient-derived melanoma cell line growth inhibition [POLQ]. Conditions: second compound 0.316 µM; first compound 0.316 µM; hits give low values. The method, boiled down:
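PDC + HUVEC + MSC complex spheroids; POLQ inhibitors ± partner drugs; top conc. at/near clinical Cmax, else 10 microM (SN-38 1 microM), half-log dilutions; 37 degrees C, 5% CO2.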
In general, viability, T/C refers to the result in the treated group divided by that in the control group, in per cent. For the molecule `COc1cccc(OCCCN)c1-c1cc(Nc2cnc(C#N)cn2)n[nH]1` + COC1C(OC(N)=O)C(O)C(Oc2ccc3c(O)c(NC(=O)c4ccc(O)c(CC=C(C)C)c4)c(=O)oc3c2C)OC1(C)C, the viability, T/C was 39.8%.
In the case of `O=C(c1cc(Cc2n[nH]c(=O)c3ccccc23)ccc1F)N1CCN(C(=O)C2CC2)CC1` + COC1C(OC(N)=O)C(O)C(Oc2ccc3c(O)c(NC(=O)c4ccc(O)c(CC=C(C)C)c4)c(=O)oc3c2C)OC1(C)C, the viability, T/C was 97.9%.

The same experiment, now with this note: second compound 0.316 µM; first compound 1 µM; hits give low values.
Take `CCCS(=O)(=O)Nc1ccc(F)c(C(=O)c2c[nH]c3ncc(-c4ccc(Cl)cc4)cc23)c1F` + COC1C(OC(N)=O)C(O)C(Oc2ccc3c(O)c(NC(=O)c4ccc(O)c(CC=C(C)C)c4)c(=O)oc3c2C)OC1(C)C: the viability, T/C was 70.5%.
Turning to `CNCc1ccc(-c2[nH]c3cc(F)cc4c3c2CCNC4=O)cc1` + COC1C(OC(N)=O)C(O)C(Oc2ccc3c(O)c(NC(=O)c4ccc(O)c(CC=C(C)C)c4)c(=O)oc3c2C)OC1(C)C, the viability, T/C is 96.1%.
On the same count and under the same terms, the value for `COc1cccc(OCCCN)c1-c1cc(Nc2cnc(C#N)cn2)n[nH]1` + COC1C(OC(N)=O)C(O)C(Oc2ccc3c(O)c(NC(=O)c4ccc(O)c(CC=C(C)C)c4)c(=O)oc3c2C)OC1(C)C was 38.6%; that for `O=C(c1cc(Cc2n[nH]c(=O)c3ccccc23)ccc1F)N1CCN(C(=O)C2CC2)CC1` + COC1C(OC(N)=O)C(O)C(Oc2ccc3c(O)c(NC(=O)c4ccc(O)c(CC=C(C)C)c4)c(=O)oc3c2C)OC1(C)C was 81.5%.

Still in this experiment, the particulars now being: second compound 0.316 µM; first compound 3.16 µM; hits give low values.
On to `CCCS(=O)(=O)Nc1ccc(F)c(C(=O)c2c[nH]c3ncc(-c4ccc(Cl)cc4)cc23)c1F` + COC1C(OC(N)=O)C(O)C(Oc2ccc3c(O)c(NC(=O)c4ccc(O)c(CC=C(C)C)c4)c(=O)oc3c2C)OC1(C)C, for which the viability, T/C is 71.7%.
With `CNCc1ccc(-c2[nH]c3cc(F)cc4c3c2CCNC4=O)cc1` + COC1C(OC(N)=O)C(O)C(Oc2ccc3c(O)c(NC(=O)c4ccc(O)c(CC=C(C)C)c4)c(=O)oc3c2C)OC1(C)C, the viability, T/C is 108%.
Take `O=C(c1cc(Cc2n[nH]c(=O)c3ccccc23)ccc1F)N1CCN(C(=O)C2CC2)CC1` + COC1C(OC(N)=O)C(O)C(Oc2ccc3c(O)c(NC(=O)c4ccc(O)c(CC=C(C)C)c4)c(=O)oc3c2C)OC1(C)C: the viability, T/C is 80.7%.

The same experiment, now with this note: second compound 0.316 µM; first compound 10 µM; hits give low values.
As to `CCCS(=O)(=O)Nc1ccc(F)c(C(=O)c2c[nH]c3ncc(-c4ccc(Cl)cc4)cc23)c1F` + COC1C(OC(N)=O)C(O)C(Oc2ccc3c(O)c(NC(=O)c4ccc(O)c(CC=C(C)C)c4)c(=O)oc3c2C)OC1(C)C, the viability, T/C was 70.8%.
Take `CNCc1ccc(-c2[nH]c3cc(F)cc4c3c2CCNC4=O)cc1` + COC1C(OC(N)=O)C(O)C(Oc2ccc3c(O)c(NC(=O)c4ccc(O)c(CC=C(C)C)c4)c(=O)oc3c2C)OC1(C)C: the viability, T/C was 70.5%.
With `O=C(c1cc(Cc2n[nH]c(=O)c3ccccc23)ccc1F)N1CCN(C(=O)C2CC2)CC1` + COC1C(OC(N)=O)C(O)C(Oc2ccc3c(O)c(NC(=O)c4ccc(O)c(CC=C(C)C)c4)c(=O)oc3c2C)OC1(C)C, the viability, T/C is 73.5%.

Staying with this experiment, now noted: second compound 1 µM; first compound 0.00316 µM; hits give low values.
Regarding `COc1cccc(OCCCN)c1-c1cc(Nc2cnc(C#N)cn2)n[nH]1` + COC1C(OC(N)=O)C(O)C(Oc2ccc3c(O)c(NC(=O)c4ccc(O)c(CC=C(C)C)c4)c(=O)oc3c2C)OC1(C)C, the viability, T/C was 96%.

Staying with this experiment, now noted: second compound 1 µM; first compound 0.01 µM; hits give low values.
As for `COc1cccc(OCCCN)c1-c1cc(Nc2cnc(C#N)cn2)n[nH]1` + COC1C(OC(N)=O)C(O)C(Oc2ccc3c(O)c(NC(=O)c4ccc(O)c(CC=C(C)C)c4)c(=O)oc3c2C)OC1(C)C, the viability, T/C is 76.9%.

The experiment is the same for the next values; noted with them: second compound 1 µM; first compound 0.0316 µM; hits give low values.
Take `CCCS(=O)(=O)Nc1ccc(F)c(C(=O)c2c[nH]c3ncc(-c4ccc(Cl)cc4)cc23)c1F` + COC1C(OC(N)=O)C(O)C(Oc2ccc3c(O)c(NC(=O)c4ccc(O)c(CC=C(C)C)c4)c(=O)oc3c2C)OC1(C)C: the viability, T/C was 82.2%.
Still for that read-out and setting: the value for `CNCc1ccc(-c2[nH]c3cc(F)cc4c3c2CCNC4=O)cc1` + COC1C(OC(N)=O)C(O)C(Oc2ccc3c(O)c(NC(=O)c4ccc(O)c(CC=C(C)C)c4)c(=O)oc3c2C)OC1(C)C was 109%.
The same measure, in the same setting: the value for `COc1cccc(OCCCN)c1-c1cc(Nc2cnc(C#N)cn2)n[nH]1` + COC1C(OC(N)=O)C(O)C(Oc2ccc3c(O)c(NC(=O)c4ccc(O)c(CC=C(C)C)c4)c(=O)oc3c2C)OC1(C)C was 76%; that for `O=C(c1cc(Cc2n[nH]c(=O)c3ccccc23)ccc1F)N1CCN(C(=O)C2CC2)CC1` + COC1C(OC(N)=O)C(O)C(Oc2ccc3c(O)c(NC(=O)c4ccc(O)c(CC=C(C)C)c4)c(=O)oc3c2C)OC1(C)C was 83.3%.

Staying with this experiment, now noted: second compound 1 µM; first compound 0.1 µM; hits give low values.
In the case of `CCCS(=O)(=O)Nc1ccc(F)c(C(=O)c2c[nH]c3ncc(-c4ccc(Cl)cc4)cc23)c1F` + COC1C(OC(N)=O)C(O)C(Oc2ccc3c(O)c(NC(=O)c4ccc(O)c(CC=C(C)C)c4)c(=O)oc3c2C)OC1(C)C, the viability, T/C was 98.2%.
Same read-out and setting: the value for `CNCc1ccc(-c2[nH]c3cc(F)cc4c3c2CCNC4=O)cc1` + COC1C(OC(N)=O)C(O)C(Oc2ccc3c(O)c(NC(=O)c4ccc(O)c(CC=C(C)C)c4)c(=O)oc3c2C)OC1(C)C was 98.6%; that for `COc1cccc(OCCCN)c1-c1cc(Nc2cnc(C#N)cn2)n[nH]1` + COC1C(OC(N)=O)C(O)C(Oc2ccc3c(O)c(NC(=O)c4ccc(O)c(CC=C(C)C)c4)c(=O)oc3c2C)OC1(C)C was 64.7%; that for `O=C(c1cc(Cc2n[nH]c(=O)c3ccccc23)ccc1F)N1CCN(C(=O)C2CC2)CC1` + COC1C(OC(N)=O)C(O)C(Oc2ccc3c(O)c(NC(=O)c4ccc(O)c(CC=C(C)C)c4)c(=O)oc3c2C)OC1(C)C was 85%.

The experiment is the same for the next values; noted with them: second compound 1 µM; first compound 0.316 µM; hits give low values.
In the case of `CCCS(=O)(=O)Nc1ccc(F)c(C(=O)c2c[nH]c3ncc(-c4ccc(Cl)cc4)cc23)c1F` + COC1C(OC(N)=O)C(O)C(Oc2ccc3c(O)c(NC(=O)c4ccc(O)c(CC=C(C)C)c4)c(=O)oc3c2C)OC1(C)C, the viability, T/C was 80.4%.
Consider `CNCc1ccc(-c2[nH]c3cc(F)cc4c3c2CCNC4=O)cc1` + COC1C(OC(N)=O)C(O)C(Oc2ccc3c(O)c(NC(=O)c4ccc(O)c(CC=C(C)C)c4)c(=O)oc3c2C)OC1(C)C, for which the viability, T/C was 97.8%.
Same read-out and setting: under `COc1cccc(OCCCN)c1-c1cc(Nc2cnc(C#N)cn2)n[nH]1` + COC1C(OC(N)=O)C(O)C(Oc2ccc3c(O)c(NC(=O)c4ccc(O)c(CC=C(C)C)c4)c(=O)oc3c2C)OC1(C)C stands 52%; under `O=C(c1cc(Cc2n[nH]c(=O)c3ccccc23)ccc1F)N1CCN(C(=O)C2CC2)CC1` + COC1C(OC(N)=O)C(O)C(Oc2ccc3c(O)c(NC(=O)c4ccc(O)c(CC=C(C)C)c4)c(=O)oc3c2C)OC1(C)C, 92.8%.

Still in this experiment, the particulars now being: second compound 1 µM; first compound 1 µM; hits give low values.
With `CCCS(=O)(=O)Nc1ccc(F)c(C(=O)c2c[nH]c3ncc(-c4ccc(Cl)cc4)cc23)c1F` + COC1C(OC(N)=O)C(O)C(Oc2ccc3c(O)c(NC(=O)c4ccc(O)c(CC=C(C)C)c4)c(=O)oc3c2C)OC1(C)C, the viability, T/C was 87.6%.
On the same count and under the same terms, under `CNCc1ccc(-c2[nH]c3cc(F)cc4c3c2CCNC4=O)cc1` + COC1C(OC(N)=O)C(O)C(Oc2ccc3c(O)c(NC(=O)c4ccc(O)c(CC=C(C)C)c4)c(=O)oc3c2C)OC1(C)C stands 95.8%; under `COc1cccc(OCCCN)c1-c1cc(Nc2cnc(C#N)cn2)n[nH]1` + COC1C(OC(N)=O)C(O)C(Oc2ccc3c(O)c(NC(=O)c4ccc(O)c(CC=C(C)C)c4)c(=O)oc3c2C)OC1(C)C, 36.6%; under `O=C(c1cc(Cc2n[nH]c(=O)c3ccccc23)ccc1F)N1CCN(C(=O)C2CC2)CC1` + COC1C(OC(N)=O)C(O)C(Oc2ccc3c(O)c(NC(=O)c4ccc(O)c(CC=C(C)C)c4)c(=O)oc3c2C)OC1(C)C, 92.3%.

The same experiment, now with this note: second compound 1 µM; first compound 3.16 µM; hits give low values.
With `CCCS(=O)(=O)Nc1ccc(F)c(C(=O)c2c[nH]c3ncc(-c4ccc(Cl)cc4)cc23)c1F` + COC1C(OC(N)=O)C(O)C(Oc2ccc3c(O)c(NC(=O)c4ccc(O)c(CC=C(C)C)c4)c(=O)oc3c2C)OC1(C)C, the viability, T/C is 65.5%.
Still for that read-out and setting: under `CNCc1ccc(-c2[nH]c3cc(F)cc4c3c2CCNC4=O)cc1` + COC1C(OC(N)=O)C(O)C(Oc2ccc3c(O)c(NC(=O)c4ccc(O)c(CC=C(C)C)c4)c(=O)oc3c2C)OC1(C)C stands 90.5%.
Same read-out and setting: the value for `O=C(c1cc(Cc2n[nH]c(=O)c3ccccc23)ccc1F)N1CCN(C(=O)C2CC2)CC1` + COC1C(OC(N)=O)C(O)C(Oc2ccc3c(O)c(NC(=O)c4ccc(O)c(CC=C(C)C)c4)c(=O)oc3c2C)OC1(C)C was 100%.

The same experiment, now with this note: second compound 1 µM; first compound 10 µM; hits give low values.
For `CCCS(=O)(=O)Nc1ccc(F)c(C(=O)c2c[nH]c3ncc(-c4ccc(Cl)cc4)cc23)c1F` + COC1C(OC(N)=O)C(O)C(Oc2ccc3c(O)c(NC(=O)c4ccc(O)c(CC=C(C)C)c4)c(=O)oc3c2C)OC1(C)C, the viability, T/C is 65%.
As to `CNCc1ccc(-c2[nH]c3cc(F)cc4c3c2CCNC4=O)cc1` + COC1C(OC(N)=O)C(O)C(Oc2ccc3c(O)c(NC(=O)c4ccc(O)c(CC=C(C)C)c4)c(=O)oc3c2C)OC1(C)C, the viability, T/C is 74.6%.
Same read-out and setting: the value for `O=C(c1cc(Cc2n[nH]c(=O)c3ccccc23)ccc1F)N1CCN(C(=O)C2CC2)CC1` + COC1C(OC(N)=O)C(O)C(Oc2ccc3c(O)c(NC(=O)c4ccc(O)c(CC=C(C)C)c4)c(=O)oc3c2C)OC1(C)C was 63.6%.

The same experiment, now with this note: second compound 3.16 µM; first compound 0.00316 µM; hits give low values.
For the molecule `COc1cccc(OCCCN)c1-c1cc(Nc2cnc(C#N)cn2)n[nH]1` + COC1C(OC(N)=O)C(O)C(Oc2ccc3c(O)c(NC(=O)c4ccc(O)c(CC=C(C)C)c4)c(=O)oc3c2C)OC1(C)C, the viability, T/C is 88.6%.

The experiment is the same for the next values; noted with them: second compound 3.16 µM; first compound 0.01 µM; hits give low values.
For the molecule `COc1cccc(OCCCN)c1-c1cc(Nc2cnc(C#N)cn2)n[nH]1` + COC1C(OC(N)=O)C(O)C(Oc2ccc3c(O)c(NC(=O)c4ccc(O)c(CC=C(C)C)c4)c(=O)oc3c2C)OC1(C)C, the viability, T/C was 85.2%.

The experiment is the same for the next values; noted with them: second compound 3.16 µM; first compound 0.0316 µM; hits give low values.
On to `CCCS(=O)(=O)Nc1ccc(F)c(C(=O)c2c[nH]c3ncc(-c4ccc(Cl)cc4)cc23)c1F` + COC1C(OC(N)=O)C(O)C(Oc2ccc3c(O)c(NC(=O)c4ccc(O)c(CC=C(C)C)c4)c(=O)oc3c2C)OC1(C)C, for which the viability, T/C was 92.1%.
Same read-out and setting: under `CNCc1ccc(-c2[nH]c3cc(F)cc4c3c2CCNC4=O)cc1` + COC1C(OC(N)=O)C(O)C(Oc2ccc3c(O)c(NC(=O)c4ccc(O)c(CC=C(C)C)c4)c(=O)oc3c2C)OC1(C)C stands 99.9%; under `COc1cccc(OCCCN)c1-c1cc(Nc2cnc(C#N)cn2)n[nH]1` + COC1C(OC(N)=O)C(O)C(Oc2ccc3c(O)c(NC(=O)c4ccc(O)c(CC=C(C)C)c4)c(=O)oc3c2C)OC1(C)C, 65.3%; under `O=C(c1cc(Cc2n[nH]c(=O)c3ccccc23)ccc1F)N1CCN(C(=O)C2CC2)CC1` + COC1C(OC(N)=O)C(O)C(Oc2ccc3c(O)c(NC(=O)c4ccc(O)c(CC=C(C)C)c4)c(=O)oc3c2C)OC1(C)C, 71.1%.
